Series [1] addresses T1, recombinant purified human BTK (Homo sapiens, UniProt Q06187).
T1 construct: purchased SignalChem, USA
Put plainly: In vitro BTK kinase assay on ADP Glo platform. Conditions: 2 hr room temperature, read-out: In-vitro BTK inhibitory activity: IC50. It is filed as biochemical. Put shortly:
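Recombinant human BTK (3 ng/reaction) with compound dilutions in Tris pH 7.5, MgCl2/MnCl2, BSA, DTT; started with 50 µM ATP (final) and polyGln4Tyr1 substrate, 2 h at room temperature. ADP formed detected by ADP-Glo luminescence; IC50 by nonlinear fit versus uninhibited enzyme as 100%.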
(ADP-Glo first removes unused ATP, then detects ADP through luciferase.)

The next series has as its target T2, CYP 1A2 (Homo sapiens, UniProt P05177).
T2 construct: from tissue; host or cells: human liver microsomes
T2 sequence (P05177 1-516): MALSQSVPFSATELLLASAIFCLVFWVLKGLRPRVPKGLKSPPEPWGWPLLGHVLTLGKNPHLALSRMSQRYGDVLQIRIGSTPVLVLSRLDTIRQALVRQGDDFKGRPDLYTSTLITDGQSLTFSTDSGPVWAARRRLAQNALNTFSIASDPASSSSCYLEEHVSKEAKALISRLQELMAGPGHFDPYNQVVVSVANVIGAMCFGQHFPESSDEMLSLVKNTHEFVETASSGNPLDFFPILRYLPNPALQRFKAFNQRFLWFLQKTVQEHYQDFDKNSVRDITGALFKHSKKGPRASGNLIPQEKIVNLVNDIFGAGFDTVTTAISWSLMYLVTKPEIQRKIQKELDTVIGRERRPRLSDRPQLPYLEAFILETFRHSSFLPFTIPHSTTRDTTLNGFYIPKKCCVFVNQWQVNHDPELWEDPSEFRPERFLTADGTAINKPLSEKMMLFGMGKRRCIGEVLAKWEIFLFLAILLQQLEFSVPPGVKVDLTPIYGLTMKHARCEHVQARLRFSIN
Put plainly: CYP inhibition in human liver microsomes, 1A2. It is filed as in vitro ADME. The following applies: pH 7.4, @ 10 μM concn. Put shortly:
(§1)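 Human liver microsomes in 100 mM phosphate pH 7.4 with CYP-specific probe substrate were incubated with test compound at […] and 10 μM, started with 1 mM NADPH at 37° C. Reactions were stopped with acetonitrile, and marker-reaction metabolites were quantified by LC-MS/MS. Final solvent was ≤0.2%.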
On the technique in general: Microsomes from liver hold many membrane-bound enzymes, among them those of drug oxidation.

The next series has as its target T3, CYP 2C8 (Homo sapiens, UniProt P10632).
T3 construct: from tissue; host or cells: human liver microsomes
T3 sequence (P10632 1-490): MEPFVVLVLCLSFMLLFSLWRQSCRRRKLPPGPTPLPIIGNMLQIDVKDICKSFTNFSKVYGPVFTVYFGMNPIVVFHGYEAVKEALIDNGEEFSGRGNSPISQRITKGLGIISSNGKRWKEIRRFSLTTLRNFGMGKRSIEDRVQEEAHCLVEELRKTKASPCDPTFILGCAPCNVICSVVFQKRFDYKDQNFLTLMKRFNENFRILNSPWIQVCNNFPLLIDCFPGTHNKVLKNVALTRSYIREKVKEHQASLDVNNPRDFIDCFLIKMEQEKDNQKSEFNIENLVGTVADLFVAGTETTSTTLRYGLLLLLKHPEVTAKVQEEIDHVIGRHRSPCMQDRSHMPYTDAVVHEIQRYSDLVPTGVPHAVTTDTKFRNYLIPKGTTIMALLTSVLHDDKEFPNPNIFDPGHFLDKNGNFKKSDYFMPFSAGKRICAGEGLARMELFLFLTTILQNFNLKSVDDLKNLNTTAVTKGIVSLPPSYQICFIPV
In words: CYP inhibition in human liver microsomes, 2C8. It is filed as in vitro ADME. The following applies: pH 7.4, @ 10 μM concn. The gist of the method:
as §1

Another series deals with T4, CYP 2C9 (Homo sapiens, UniProt P11712).
T4 construct: from tissue; host or cells: human liver microsomes
T4 sequence (P11712 whole entry): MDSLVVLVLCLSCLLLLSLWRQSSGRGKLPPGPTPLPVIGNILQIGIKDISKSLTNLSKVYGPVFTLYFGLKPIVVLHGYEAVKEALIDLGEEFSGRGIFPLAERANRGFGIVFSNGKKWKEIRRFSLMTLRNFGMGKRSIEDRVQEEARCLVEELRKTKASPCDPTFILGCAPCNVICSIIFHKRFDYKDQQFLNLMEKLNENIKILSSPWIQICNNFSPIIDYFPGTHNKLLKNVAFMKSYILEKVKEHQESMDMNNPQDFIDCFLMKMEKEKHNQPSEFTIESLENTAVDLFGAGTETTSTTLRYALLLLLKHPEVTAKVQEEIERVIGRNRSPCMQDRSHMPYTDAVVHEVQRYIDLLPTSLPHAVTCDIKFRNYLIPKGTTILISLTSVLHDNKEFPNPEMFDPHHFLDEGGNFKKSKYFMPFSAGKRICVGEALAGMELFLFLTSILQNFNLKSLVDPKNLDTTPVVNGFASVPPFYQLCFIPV
In words: CYP inhibition in human liver microsomes, 2C9. It is filed as in vitro ADME. The following applies: pH 7.4, @ 10 μM concn. Put shortly:
as §1

A further series deals with T5, CYP 2C19 (Homo sapiens, UniProt P33261).
T5 construct: from tissue; host or cells: human liver microsomes
T5 sequence (P33261 whole entry): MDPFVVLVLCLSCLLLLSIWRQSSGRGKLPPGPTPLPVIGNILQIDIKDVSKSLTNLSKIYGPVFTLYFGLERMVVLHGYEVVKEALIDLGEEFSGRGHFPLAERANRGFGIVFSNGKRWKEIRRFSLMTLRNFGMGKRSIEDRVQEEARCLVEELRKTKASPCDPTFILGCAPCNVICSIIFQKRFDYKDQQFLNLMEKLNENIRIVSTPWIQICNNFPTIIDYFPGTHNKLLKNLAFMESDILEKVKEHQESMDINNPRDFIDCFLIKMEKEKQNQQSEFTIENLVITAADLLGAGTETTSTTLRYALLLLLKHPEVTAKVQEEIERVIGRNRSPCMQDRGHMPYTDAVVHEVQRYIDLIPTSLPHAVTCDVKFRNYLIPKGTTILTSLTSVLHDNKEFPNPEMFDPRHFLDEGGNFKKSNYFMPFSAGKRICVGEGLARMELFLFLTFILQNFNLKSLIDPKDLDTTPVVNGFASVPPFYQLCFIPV
In words: CYP inhibition in human liver microsomes, 2C19. The class given is in vitro ADME. The following applies: pH 7.4, @ 10 μM concn. The gist of the method:
as §1

A further series concerns the target T6, CYP 2D6 (Homo sapiens, UniProt P10635).
T6 construct: from tissue; host or cells: human liver microsomes
In words: CYP inhibition in human liver microsomes, 2D6. It is filed as in vitro ADME. The following applies: pH 7.4, @ 10 μM concn. The gist of the method: as §1

The target in a further series is T7, CYP 3A4 (Homo sapiens, UniProt P08684).
T7 construct: from tissue; host or cells: human liver microsomes
T7 sequence (P08684 whole entry): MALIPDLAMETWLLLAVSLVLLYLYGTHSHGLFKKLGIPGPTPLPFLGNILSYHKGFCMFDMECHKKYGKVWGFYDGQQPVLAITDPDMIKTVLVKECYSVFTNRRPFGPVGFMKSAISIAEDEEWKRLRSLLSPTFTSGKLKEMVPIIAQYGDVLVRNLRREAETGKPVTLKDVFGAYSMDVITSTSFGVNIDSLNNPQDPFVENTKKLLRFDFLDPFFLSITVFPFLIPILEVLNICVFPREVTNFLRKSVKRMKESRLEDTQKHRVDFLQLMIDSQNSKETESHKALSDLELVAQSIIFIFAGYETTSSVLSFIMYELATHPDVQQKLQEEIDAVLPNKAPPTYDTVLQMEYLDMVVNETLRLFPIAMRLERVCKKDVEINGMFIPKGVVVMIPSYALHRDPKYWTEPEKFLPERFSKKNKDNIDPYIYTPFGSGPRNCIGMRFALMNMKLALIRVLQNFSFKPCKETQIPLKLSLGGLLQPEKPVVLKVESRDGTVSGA
Put plainly: CYP inhibition in human liver microsomes, 3A4. Conditions: pH 7.4, @ 10 μM concn. It is filed as in vitro ADME. Put shortly:
as §1

T6 sequence (P10635 whole entry): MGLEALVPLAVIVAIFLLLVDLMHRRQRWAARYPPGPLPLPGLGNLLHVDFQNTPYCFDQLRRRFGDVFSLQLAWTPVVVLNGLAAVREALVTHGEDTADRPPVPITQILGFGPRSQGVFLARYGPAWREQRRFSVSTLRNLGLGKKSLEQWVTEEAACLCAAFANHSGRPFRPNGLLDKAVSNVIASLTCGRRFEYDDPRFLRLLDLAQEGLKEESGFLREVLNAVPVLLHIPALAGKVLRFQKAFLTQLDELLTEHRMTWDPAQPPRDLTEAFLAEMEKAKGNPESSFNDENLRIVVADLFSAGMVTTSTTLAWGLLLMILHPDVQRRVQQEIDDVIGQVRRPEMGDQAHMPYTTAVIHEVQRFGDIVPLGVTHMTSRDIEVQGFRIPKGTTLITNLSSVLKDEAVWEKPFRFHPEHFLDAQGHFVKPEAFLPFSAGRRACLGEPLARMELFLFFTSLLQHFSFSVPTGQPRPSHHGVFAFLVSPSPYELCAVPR
T1 sequence (Q06187 whole entry): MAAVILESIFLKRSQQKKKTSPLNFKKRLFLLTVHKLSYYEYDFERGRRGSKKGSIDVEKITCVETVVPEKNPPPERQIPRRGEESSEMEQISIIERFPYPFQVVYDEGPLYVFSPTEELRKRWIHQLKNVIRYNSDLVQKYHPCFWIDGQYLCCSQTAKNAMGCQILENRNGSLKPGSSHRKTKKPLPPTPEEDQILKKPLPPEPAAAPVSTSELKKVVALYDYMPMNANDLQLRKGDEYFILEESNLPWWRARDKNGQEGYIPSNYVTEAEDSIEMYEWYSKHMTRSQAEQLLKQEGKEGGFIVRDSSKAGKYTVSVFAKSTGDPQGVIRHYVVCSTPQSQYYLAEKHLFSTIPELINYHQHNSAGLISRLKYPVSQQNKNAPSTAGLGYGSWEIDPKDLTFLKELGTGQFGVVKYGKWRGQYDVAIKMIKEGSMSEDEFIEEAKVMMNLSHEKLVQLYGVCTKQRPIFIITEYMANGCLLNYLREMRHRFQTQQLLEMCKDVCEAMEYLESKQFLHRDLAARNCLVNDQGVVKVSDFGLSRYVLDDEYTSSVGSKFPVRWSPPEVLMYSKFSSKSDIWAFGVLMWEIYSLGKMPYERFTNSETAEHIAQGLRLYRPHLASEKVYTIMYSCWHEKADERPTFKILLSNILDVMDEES

A word on the IC50: it is the point on the concentration scale where inhibition reaches its midpoint. By inhibition is commonly meant the change of the read-out against control, counted positive when it falls. The low end stands for a response near the control, the high end for a response far below the control. In the case of `C=CC(=O)N1CC2CC(n3nc(-c4ccc5oc(-c6ccccc6)nc5c4)c4c(N)ncnc43)CC2C1` (stereo not drawn) [Compound 23, 1-(5-(4-amino-3-(2-phenylbenzo[d]oxazol-5-yl)-1H-pyrazolo[3,4-d]pyrimidin-1-yl)hexahydrocyclopenta[c]pyrrol-2(1H)-yl)prop-2-en-1-one], the 50% inhibitory concentration (IC50) in series [1] was 48 nM. Also, the inhibition at 10 μM against CYP 1A2 was under 50%; at CYP 2C8, over 50%; against CYP 2C9, over 50%; at CYP 2C19 it was under 50%; against CYP 2D6, under 50%; at CYP 3A4 it was over 50%.
On to `Cc1ccnc(N(C)C(=O)c2ccc(-c3nn(C4CC5CN(C(=O)/C=C/CN(C)C)CC5C4)c4ncnc(N)c34)cc2)c1` (stereo not drawn) [Compound 55, (E)-4-(4-amino-1-(2-(4-(dimethylamino)but-2-enoyl)octahydrocyclopenta [c]pyrrol-5-yl)-1H-pyrazolo[3,4-d]pyrimidin-3-yl)-N-methyl-N-(4-methylpyridin-2-yl)benzamide], for which the IC50 in series [1] was found to be 80 nM. The inhibition at 10 μM on CYP 1A2 was under 50%; at CYP 2C8, over 50%; at CYP 2C9, over 50%; on CYP 2C19, over 50%; against CYP 2D6, under 50%; on CYP 3A4 it was over 50%.
As to `C=CC(=O)N1CC2CN(CCn3nc(-c4ccc(Oc5ccccc5)cc4)c4c(N)ncnc43)CC2C1` (stereo not drawn) [Compound 4, 1-(5-(2-(4-amino-3-(4-phenoxyphenyl)-1H-pyrazolo[3,4-d]pyrimidin-1-yl)ethyl)hexahydropyrrolo[3,4-c]pyrrol-2(1H)-yl)prop-2-en-1-one], the IC50 in series [1] is 2 nM. Moreover, the inhibition at 10 μM on CYP 1A2, against CYP 2C8, on CYP 2C9, on CYP 2C19, against CYP 2D6 and against CYP 3A4 was under 50% throughout.
